Paper PMC5926067 (Japanese Journal of Cancer Research : Gann, 1999)

Key:
Format in all cases: biochemical
gelatinase B (MMP-9) = gelatinase B (MMP-9) (Homo sapiens, UniProt P14780); assay: fluorescence-labeled gelatin degradation assay, partially purified enzyme
stromelysin = stromelysin (Mus musculus, UniProt P28862); assay: fluorescence-labeled casein degradation assay, partially purified enzyme
interstitial collagenase = target: T1, interstitial collagenase (Homo sapiens, UniProt P03956); assay: fluorescence-labeled collagen degradation assay, partially purified enzyme
T1 sequence (P03956 100-469): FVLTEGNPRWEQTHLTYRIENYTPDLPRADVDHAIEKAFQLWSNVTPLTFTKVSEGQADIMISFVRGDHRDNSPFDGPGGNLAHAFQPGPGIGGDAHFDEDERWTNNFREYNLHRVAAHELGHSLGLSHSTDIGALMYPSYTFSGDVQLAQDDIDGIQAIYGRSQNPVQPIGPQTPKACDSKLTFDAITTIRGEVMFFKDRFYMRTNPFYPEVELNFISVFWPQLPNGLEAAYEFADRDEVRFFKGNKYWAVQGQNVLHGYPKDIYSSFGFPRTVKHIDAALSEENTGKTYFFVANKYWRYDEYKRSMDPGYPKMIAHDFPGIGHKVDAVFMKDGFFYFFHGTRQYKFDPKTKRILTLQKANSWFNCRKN

gelatinase A (MMP-2) = target: T2, gelatinase A (MMP-2) (Homo sapiens, UniProt P08253); assay: fluorescence-labeled gelatin degradation assay, partially purified enzyme
T2 sequence (P08253 110-660): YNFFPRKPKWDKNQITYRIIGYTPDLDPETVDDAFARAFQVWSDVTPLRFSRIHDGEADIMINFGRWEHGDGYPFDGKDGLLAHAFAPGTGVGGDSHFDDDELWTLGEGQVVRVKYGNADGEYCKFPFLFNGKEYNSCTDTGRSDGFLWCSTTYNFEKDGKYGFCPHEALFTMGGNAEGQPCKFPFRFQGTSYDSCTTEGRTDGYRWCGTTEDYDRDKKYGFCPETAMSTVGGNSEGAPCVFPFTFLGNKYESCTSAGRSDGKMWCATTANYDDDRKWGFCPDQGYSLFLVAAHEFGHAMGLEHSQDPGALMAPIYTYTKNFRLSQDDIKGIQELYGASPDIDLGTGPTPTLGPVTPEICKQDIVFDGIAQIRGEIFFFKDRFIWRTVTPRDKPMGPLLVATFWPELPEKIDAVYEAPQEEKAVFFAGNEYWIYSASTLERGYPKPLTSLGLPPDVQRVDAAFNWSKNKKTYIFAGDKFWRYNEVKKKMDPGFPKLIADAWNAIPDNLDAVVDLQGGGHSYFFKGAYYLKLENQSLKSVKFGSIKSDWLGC

stromelysin, sequence (P28862 100-477): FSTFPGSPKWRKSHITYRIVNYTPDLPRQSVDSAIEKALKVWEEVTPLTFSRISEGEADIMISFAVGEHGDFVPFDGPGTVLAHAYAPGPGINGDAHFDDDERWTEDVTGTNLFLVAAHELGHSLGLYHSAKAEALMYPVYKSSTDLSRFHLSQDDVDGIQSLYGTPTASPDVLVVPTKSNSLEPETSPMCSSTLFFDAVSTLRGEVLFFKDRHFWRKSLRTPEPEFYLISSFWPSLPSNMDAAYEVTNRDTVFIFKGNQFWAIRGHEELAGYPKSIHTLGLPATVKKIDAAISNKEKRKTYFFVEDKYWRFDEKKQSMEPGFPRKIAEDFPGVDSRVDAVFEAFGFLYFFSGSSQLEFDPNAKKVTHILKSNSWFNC
gelatinase B (MMP-9), sequence (P14780 107-707): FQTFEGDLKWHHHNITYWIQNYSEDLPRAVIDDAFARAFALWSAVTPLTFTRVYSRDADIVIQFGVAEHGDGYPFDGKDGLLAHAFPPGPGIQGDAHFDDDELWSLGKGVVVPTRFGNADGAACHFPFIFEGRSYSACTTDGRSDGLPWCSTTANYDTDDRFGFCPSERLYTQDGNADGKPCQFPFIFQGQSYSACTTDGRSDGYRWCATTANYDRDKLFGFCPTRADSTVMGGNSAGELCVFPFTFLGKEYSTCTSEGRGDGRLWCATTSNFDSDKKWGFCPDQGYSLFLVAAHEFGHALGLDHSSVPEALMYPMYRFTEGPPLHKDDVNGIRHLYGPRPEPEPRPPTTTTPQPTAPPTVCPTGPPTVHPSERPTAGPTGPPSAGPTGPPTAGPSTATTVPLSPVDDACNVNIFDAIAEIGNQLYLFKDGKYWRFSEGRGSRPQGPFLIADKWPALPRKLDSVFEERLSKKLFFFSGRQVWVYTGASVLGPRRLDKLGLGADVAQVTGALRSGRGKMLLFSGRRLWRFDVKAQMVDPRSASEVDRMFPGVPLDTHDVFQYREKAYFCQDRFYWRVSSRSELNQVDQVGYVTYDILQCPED

Compound: CON1C(=O)[C@@H](NC(=O)[C@@H](CC(=O)NO)CC(C)C)Cc2ccccc21 [OPB-3206, 3S-[4-(N-hydroxyamino)-2R-isobutylsuccinyl]amino-1-methoxy-3,4-dihydrocarbostyril]
- IC50 (gelatinase B (MMP-9)): 500 nM
- IC50 (stromelysin): 2000 nM
- IC50 (interstitial collagenase): 700 nM
- IC50 (gelatinase A (MMP-2)): 5000 nM
